In patent US20250034200A1, “Prodrugs of Neurosteroid Analogs and Uses Thereof” (priority 2021, published 2025):
Counter-ions that a name gives are not always drawn. Like-named read-outs stand apart in the source and are kept apart here.

Experiments:
[1] = Plasma stability assay (LC-MS/MS); format: in vitro ADME; conditions: human plasma, 37° C., 3 μM
Method: Procaine and procainamide were purchased from Sigma Aldrich. HPLC-grade acetonitrile, water, methanol, and formic acid were purchased from Fisher Scientific. Human plasma (Cat. No. […]2N) was obtained from BIOIVT, and PBS (1×Dulbecco's, pH 7.4) from Thermo Fisher Scientific.
Test compounds were dissolved in DMSO to make a stock solution of 10 mM and then diluted to 500 μM in buffer or 70% methanol. Human plasma was thawed at ambient temperature and aliquoted (994.0 μL) to a 1.5 mL Eppendorf tube in duplicates (vials A and B) for each compound. The plasma was incubated at 37° C. for 10 min in an incubator shaker at 150 RPM; the reaction was initiated by addition of the test compound (6.0 μL), followed by vortex mixing. The total reaction volume was 1000 μL, the final organic solvent concentrations were […] (when 70% methanol was used for dilution) and 0.03% DMSO, and the final concentration of the test compound was 3 μM. The spiked plasma samples were incubated at 37° C. for 4 h. The reactions were terminated at time point 0, 15, 30, 60, 120, 180, and 240 min by taking a 100 μL aliquot from the test incubation mixture and immediately quenching it by adding it into ice-cold acetonitrile or methanol (150 μL) containing 2 μM internal standard (ISTD), followed by vortex mixing. The ISTD was d5-7-ethoxy coumarin. The samples were then centrifuged at 15000 RPM for 25 min at 4° C., and the supernatant was transferred to an LC-MS vial for analysis by LC-MS/MS. Each time point was tested in duplicates followed by in-between blank washes to avoid carryover and to equilibrate the column.
Procaine (poor plasma stability) and procainamide (good plasma stability) were used as controls at the same concentration as that of the test compound. These controls were run in parallel to test the assay's competency. Matrix blank was prepared by adding acetonitrile or methanol containing ISTD to plasma samples without any of the test or control compounds. Also, an additional control sample was made to simply monitor compound degradation in PBS buffer.
Below is a summary of samples prepared for a given test compound in a typical plasma stability assay: • Test compound (TC): 994 μL human plasma+6.0 μL TC (Vial A) 994 μL human plasma+6.0 μL TC (Vial B) • Control: 596 μL human plasma+3.6 μL (procaine+procainamide) • Blank matrix: 500 μL PBS buffer+100 μL human plasma • Additional control: 142 μL PBS buffer+0.9 μL TC • Quenching mixture: 150 μL acetonitrile or methanol with ISTD (2 μM) • Final volume: 250 μL (100 μL from the incubation mixture+150 μL quenching mixture; final ISTD conc.: 1.2 μM)
LC-MS/MS analysis was performed using Agilent 1260 Infinity II HPLC, coupled with an Agilent G6460 triple quadrupole mass spectrometer (Agilent Technologies, USA). The data were acquired and processed using the Agilent 6460 Quantitative Analysis data processing software.
Reverse-phase HPLC separation for each compound was achieved on an Agilent InfinityLab Poroshell 120 C18 column (2.1×50 mm, 2.7 μm) with a mobile phase composed of methanol/water with 0.1% formic acid or acetonitrile/water with 0.1% formic acid at a flow rate of 0.5 mL/min. Each method was developed in the presence of the ISTD. The column temperature was maintained at 40° C. The detection was operated using the Agilent Jet-Stream electrospray positive ionization under the multiple reaction monitoring mode. The mass spec conditions were as follows: dwell time 100 ms; gas flow 10 L/min; nebulizer pressure 45 psi; delta EMV 200 V.
Plots of time (x-axis) vs. the natural logarithm of percent parent remaining (y-axis) were subsequently constructed to determine the slope. Finally, the plasma stability was evaluated using the following equation: […]

[2] = Aqueous stability assay (HPLC, pseudo first-order half-life); format: physicochemical; conditions: DPBS pH 7.0-7.3, 1 mg/mL, room temperature; for half-life at 1 mg/mL / half-life: buffer, read-out: PBS t1/2 (converted)
Method: Aqueous stability experiments were performed on an Agilent 1100 HPLC equipped with an Agilent 1200 autosampler. HPLC grade solvents were exclusively used during analysis, with acetonitrile being purchased from Sigma Aldrich, and water and formic acid provided by Fisher Scientific. […]
[…] All mixtures were then sonicated for 5 min or stirred until complete dissolution was achieved. Any precipitate observed in sample solutions was filtered with a PTFE syringe filter prior to analysis. Immediately after sample preparation, injection by the HPLC autosampler was performed, which was recorded as the initial time point (t=0 min). Samples were then kept in the autosampler at room temperature and injected at designated intervals without additional filtration or sample modification. Next, the area of the parent peak in each chromatogram was determined by automated integration in the Agilent ChemStation software. Pseudo first-order half-lives were then ascertained by calculating the percent of the parent compound remaining after each time point. Plots of time (x-axis) vs. the natural logarithm of percent parent remaining (y-axis) were subsequently constructed to determine the slope. Finally, the aqueous stability was evaluated using the following equation:
The HPLC conditions were as follows: injection volume, 1 μL; column temperature: 40° C.; detector: 254 nm; stationary phase: Zorbax Eclipse XDB-C18 (4.6×150 mm, 5 μm); flow rate: 1 mL/min; mobile phase: 80-95% acetonitrile in H2O (0.1% formic acid).

[3] = read-out: Plasma t1/2 (converted)

C/C(=N\OC(=O)N1CCC[C@H]1CN)[C@H]1CCC2[C@@H]3CCC4=CC(=O)CC[C@]4(C)[C@H]3CC[C@@]21C (stereo partly drawn) [32h, ((2S)-1-(((((E)-1-((8S,9S,10R,13S,17S)-10,13-dimethyl-3-oxo-2,3,6,7,8,9,10,11,12,13,14,15,16,17-tetradecahydro-1H-cyclopenta[a]phenanthren-17-yl)ethylidene)amino)oxy)carbonyl)pyrrolidin-2-yl) methanaminium chloride]
half-life at 3 µM [1, 3]: > 4 h
half-life at 1 mg/mL ([2]; d (days)): > 720 h

C/C(=N\OC(=O)N(C)C[C@@H]1CCCCN1)[C@H]1CCC2[C@@H]3CCC4=CC(=O)CC[C@]4(C)[C@H]3CC[C@@]21C.Cl (stereo partly drawn) [32l, (8S,9S,10R,13S,17S)-10,13-dimethyl-17-((E)-1-(((methyl(((S)-piperidin-2-yl)methyl)carbamoyl)oxy)imino)ethyl)-1,2,6,7,8,9,10,11,12,13,14,15,16,17-tetradecahydro-3H-cyclopenta[a]phenanthren-3-one hydrochloride]
half-life [1, 3]: 6.8 h
half-life ([2]; d (days)): 475 h

C/C(=N\OC(=O)N(C)Cc1ccccn1)[C@H]1CC[C@H]2[C@@H]3CCC4=CC(=O)CC[C@]4(C)[C@H]3CC[C@]12C [compound 36, (8S,9S,10R,13S,14S,17S)-10,13-dimethyl-17-((E)-1-(((methyl(pyridin-2-ylmethyl)carbamoyl)oxy)imino)ethyl)-1,2,6,7,8,9,10,11,12,13,14,15,16,17-tetradecahydro-3H-cyclopenta[a]phenanthren-3-one]
half-life [1, 3]: 222 h

C/C(=N\OC(=O)N(C)C[C@@H]1C[C@@H](O)CN1)[C@H]1CC[C@H]2[C@@H]3CCC4=CC(=O)CC[C@]4(C)[C@H]3CC[C@]12C.O=C(O)C(F)(F)F [32m, (8S,9S,10R,13S,14S,17S)-17-((E)-1-((((((2S,4R)-4-hydroxypyrrolidin-2-yl)methyl)(methyl)carbamoyl)oxy)imino)ethyl)-10,13-dimethyl-1,2,6,7,8,9,10,11,12,13,14,15,16,17-tetradecahydro-3H-cyclopenta[a]phenanthren-3-one 2,2,2-trifluoroacetate]
half-life [2]: 1.3 h

CNCCN(CCC(=O)O)C(=O)O/N=C(\C)[C@H]1CC[C@H]2[C@@H]3CCC4=CC(=O)CC[C@]4(C)[C@H]3CC[C@]12C.O=C(O)C(F)(F)F [53h, 3-((((((E)-1-((8S,9S,10R,13S,14S,17S)-10,13-dimethyl-3-oxo-2,3,6,7,8,9,10,11,12,13,14,15,16,17-tetradecahydro-1H-cyclopenta[a]phenanthren-17-yl)ethylidene)amino)oxy)carbonyl)(2-(methylamino)ethyl)amino) propanoic acid 2,2,2-trifluoroacetate]
half-life [2]: > 24 h

C/C(=N\OC(=O)OCCN(C)C)[C@H]1CC[C@H]2[C@@H]3CCC4=CC(=O)CC[C@]4(C)[C@H]3CC[C@]12C.Cl [compound 35, (E)-9-((8S,9S,10R,13S,14S,17S)-10,13-dimethyl-3-oxo-2,3,6,7,8,9,10,11,12,13,14,15,16,17-tetradecahydro-1H-cyclopenta[a]phenanthren-17-yl)-2-methyl-5,7-dioxa-2,8-diazadec-8-en-6-one hydrochloride]
Plasma t1/2 [1]: 7.2 h
half-life [2]: 3.5 ± 0.6 h

C/C(=N\OC(=O)NCCCN)[C@H]1CC[C@H]2[C@@H]3CCC4=CC(=O)CC[C@]4(C)[C@H]3CC[C@]12C [32e, (8S,9S,10R,13S,14S,17S)-17-((E)-1-((((3-aminopropyl)carbamoyl)oxy)imino)ethyl)-10,13-dimethyl-1,2,6,7,8,9,10,11,12,13,14,15,16,17-tetradecahydro-3H-cyclopenta[a]phenanthren-3-one hydrochloride]
PBS t1/2 ([2]; d (days)): 120 days
half-life at 1 mg/mL [2]: 2880 h

CNCCN(CC(=O)O)C(=O)O/N=C(\C)[C@H]1CC[C@H]2[C@@H]3CCC4=CC(=O)CC[C@]4(C)[C@H]3CC[C@]12C.O=C(O)C(F)(F)F [53g, N-(((((E)-1-((8S,9S,10R,13S,14S,17S)-10,13-dimethyl-3-oxo-2,3,6,7,8,9,10,11,12,13,14,15,16,17-tetradecahydro-1H-cyclopenta[a]phenanthren-17-yl)ethylidene)amino)oxy)carbonyl)-N-(2-(methylamino)ethyl)glycine 2,2,2-trifluoroacetate]
half-life [2]: > 24 h

C/C(=N\OC(=O)OCCN)[C@H]1CC[C@H]2[C@@H]3CCC4=CC(=O)CC[C@]4(C)[C@H]3CC[C@]12C [32f, (8S,9S,10R,13S,14S,17S)-17-((E)-1-((((2-aminoethoxy)carbonyl)oxy)imino)ethyl)-10,13-dimethyl-1,2,6,7,8,9,10,11,12,13,14,15,16,17-tetradecahydro-3H-cyclopenta[a]phenanthren-3-one hydrochloride]
half-life at 1 mg/mL [2]: 0.11 ± 0.01 h

C/C(=N\OC(=O)OC[C@@H]1CCCN1)[C@H]1CCC2[C@@H]3CCC4=CC(=O)CC[C@]4(C)[C@H]3CC[C@@]21C.Cl (stereo partly drawn) [32n, (8S,9S,10R,13S,17S)-10,13-dimethyl-17-((E)-1-((((((S)-pyrrolidin-2-yl)methoxy)carbonyl)oxy)imino)ethyl)-1,2,6,7,8,9,10,11,12,13,14,15,16,17-tetradecahydro-3H-cyclopenta[a]phenanthren-3-one hydrochloride]
half-life [2]: 0.09 ± 0.01 h

C/C(=N\OC(=O)N(C)CCNCCF)[C@H]1CC[C@H]2[C@@H]3CCC4=CC(=O)CC[C@]4(C)[C@H]3CC[C@]12C.O=C(O)C(F)(F)F [32o, (E)-2-((8S,9S,10R,13S,14S,17S)-10,13-dimethyl-3-oxo-2,3,6,7,8,9,10,11,12,13,14,15,16,17-tetradecahydro-1H-cyclopenta[a]phenanthren-17-yl)-11-fluoro-6-methyl-4-oxa-3,6,9-triazaundec-2-en-5-one 2,2,2-trifluoroacetate]
Plasma t1/2 [1]: 2.2 h
half-life at 1 mg/mL [2]: 36.1 ± 2.4 h

CNCC(C)(C)CN(C)C(=O)O/N=C(\C)[C@H]1CCC2[C@@H]3CCC4=CC(=O)CC[C@]4(C)[C@H]3CC[C@@]21C.Cl (stereo partly drawn) [compound 40, (E)-10-((8S,9S,10R,13S,17S)-10,13-dimethyl-3-oxo-2,3,6,7,8,9,10,11,12,13,14,15,16,17-tetradecahydro-1H-cyclopenta[a]phenanthren-17-yl)-4,4,6-trimethyl-8-oxa-2,6,9-triazaundec-9-en-7-one hydrochloride]
half-life [1, 3]: > 4 h
half-life ([2]; d (days)): 547 h
